US5114919A, “Adjuncts in cancer chemotherapy” (Merck & Co., Inc., priority 1991, dated 1992)

Tests used:
[1] = system: KB-V-1 drug-resistant cell line; test: [3H]vinblastine accumulation assay in KB-V-1 drug-resistant cells; assay type: cell-based, human; settings: for Accumulation of [3H]vinblastine, KB-V-1, drug preincubated (60 min): Table 2
Source text: (§1) Radiolabelled compounds may also be utilized to determine the accumulation of antitumor chemotherapeutic agents in drug sensitive cells and in multidrug resistant cells. For example, the accumulation of [^3 H]vinblastine by drug sensitive cell lines and drug resistant cell lines in the presence or absence of a test compound may be determined. The relative accumulation of the radiolabelled chemotherapeutic agent is indicative of the ability of a compound to reverse multidrug resistance.
(§2) Drug Accumulation: Measurement of the accumulation of [^3 H] vinblastine in a KB-3 drug-sensitive cell line and a KB-V-1 drug-resistantcell line was performed at 37° C. in serum-free medium (DMEM). Cell monolayers were grown in 24 well dishes. [^3 H] vinblastine and different compounds (20 μM) were added to cells incubated for 30 minutes, monolayers were washed later, and drug accumulation per mg protein was assayed.

[2] = system: KB-3 drug-sensitive cell line; test: [3H]vinblastine accumulation assay in KB-3 drug-sensitive cells; assay type: cell-based, human; settings: 37° C., serum-free DMEM; for Accumulation of [3H]vinblastine, KB-3: Table 1, compound 20 μM, 30 minutes; for Accumulation of [3H]vinblastine, KB-3, drug preincubated (60 min): Table 2, drug preincubated 60 min, compound 20 μM
Source text: as §1, §2

[3] = compound 20 μM, 37° C., serum-free DMEM, drug-resistant cells
[4] = Table 1, compound 20 μM, 30 minutes, 37° C., serum-free DMEM, drug-resistant cells

Row | SMILES | Accumulation of [3H]vinblastine, KB-V-1 ([1]; 20 µM) | Accumulation of [3H]vinblastine, KB-V-1, drug preincubated (60 min) [1, 3] | Accumulation of [3H]vinblastine, KB-3 [2] | Accumulation of [3H]vinblastine, KB-3, drug preincubated (60 min) [2] | Accumulation of [3H]vinblastine, KB-V-1 [1, 4]
1 | COc1cc(C(=O)NCc2ccc3c(c2)C(=C2CCN(C)CC2)c2ccccc2C=C3)cc(OC)c1OC [3,4,5-Trimethoxy-N-((5-(1-methyl-4-piperidinylidene)-5H-dibenzo[a,d]cyclohepten-3-yl)methyl)benzamide] | 3.31 ± 0.25 pmole/mg protein | 3.57 ± 0.16 pmole/mg protein | 8.15 ± 0.44 pmole/mg protein | 3.67 ± 0.32 pmole/mg protein | –
2 | COc1ccc(CCN(C)CCCC(C#N)(c2ccc(OC)c(OC)c2)C(C)C)cc1OC (stereo not drawn) [Verapamil, reference compound] | – | 2.36 ± 0.21 pmole/mg protein | 4.65 ± 0.13 pmole/mg protein | 4.71 ± 0.25 pmole/mg protein | 2.21 ± 0.18 pmole/mg protein
3 | COc1cc(N)c(Cl)cc1C(=O)NCc1ccc2c(c1)C(=C1CCN(C)CC1)c1ccccc1C=C2 [4-Amino-5-chloro-2-methoxy-N-((5-(1-methyl-4-piperidinylidene)-5H-dibenzo[a,d]cyclohepten-3-yl)methyl)benzamide] | – | – | 3.47 ± 0.15 pmole/mg protein | – | 3.47 ± 0.26 pmole/mg protein
4 | CCOC(=O)C1=C(C)NC(C)=C(C(=O)OCC)C1c1ccc2c(c1)C(=C1CCN(C)CC1)c1ccccc1C=C2 [Diethyl 1,4-dihydro-2,6-dimethyl-4-(5-(1-methyl-4-piperidinylidene)-5H-dibenzo[a,d]cyclohepten-3-yl)pyridine dicarboxylate] | – | – | 3.32 ± 0.09 pmole/mg protein | – | 2.13 ± 0.15 pmole/mg protein
5 | Ic1ccc2c(c1)C(=C1CCN(CC3CC3)CC1)c1ccccc1C=C2 [(+)-1-cyclopropylmethyl-4-(3-iodo-5H-dibenzo[a,d]cyclohepten-5-ylidene)piperidine] | – | – | 7.35 ± 0.18 pmole/mg protein | – | 2.91 ± 0.25 pmole/mg protein
6 | FC(F)(F)Sc1ccc2c(c1)C(=C1CCN(CC3CC3)CC1)c1ccccc1C=C2 [(-)-1-cyclopropylmethyl-4-(3-trifluoromethylthio-5H-dibenzo[a,d]cyclohepten-5-ylidene)piperidine] | – | 1.85 ± 0.11 pmole/mg protein | 11.65 ± 0.11 pmole/mg protein | 10.16 ± 0.41 pmole/mg protein | 0.91 ± 0.04 pmole/mg protein
